The text below walks through data of ChEMBL document CHEMBL3046753, “Isocoumarin Derivative as a Novel GABA Receptor Ligand from Neosartorya quadricincta” (J Pestic Sci, 2004).

The nature of experiment [1]: Inhibition of GABA receptor-induced currents in Rattus norvegicus (rat) dorsal ganglion neuron.
Experiment [2] is described as follows: Displacement of [3H]EBOB from GABA receptor in Rattus norvegicus (rat) membrane after 70 min by liquid scintillation counting. It is filed as cell membranes. (In general: Displacement assays read how much labelled ligand stays bound in the presence of the test substance.)
For a further experiment, the target named is T1, GABA receptor subunit (Musca domestica, UniProt Q75NA5).
T1 sequence (Q75NA5 whole entry): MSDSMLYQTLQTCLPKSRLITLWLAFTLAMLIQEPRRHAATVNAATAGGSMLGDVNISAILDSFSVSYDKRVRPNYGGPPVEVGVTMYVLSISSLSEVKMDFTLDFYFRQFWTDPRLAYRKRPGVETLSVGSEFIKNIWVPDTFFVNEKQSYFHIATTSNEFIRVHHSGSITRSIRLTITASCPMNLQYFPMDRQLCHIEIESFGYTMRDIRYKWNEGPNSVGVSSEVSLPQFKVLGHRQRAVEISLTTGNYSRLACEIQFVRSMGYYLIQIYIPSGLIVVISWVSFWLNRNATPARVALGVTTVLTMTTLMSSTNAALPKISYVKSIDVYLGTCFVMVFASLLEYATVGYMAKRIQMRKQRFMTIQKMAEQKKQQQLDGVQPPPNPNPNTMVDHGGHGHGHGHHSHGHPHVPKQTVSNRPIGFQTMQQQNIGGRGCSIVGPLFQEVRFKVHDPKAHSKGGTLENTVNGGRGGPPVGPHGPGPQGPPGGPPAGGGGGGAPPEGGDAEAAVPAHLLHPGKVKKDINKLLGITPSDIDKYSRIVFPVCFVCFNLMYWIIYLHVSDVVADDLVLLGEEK
As to the kind of experiment: Displacement of [3H]EBOB from GABA receptor in Musca domestica (house fly) head P2 membrane after 70 min by liquid scintillation counting.

Experiment [3] addresses T2, GABA receptor subunit (Musca domestica) (UniProt Q75NA5).
T2 sequence (whole entry): T1 sequence (Q75NA5 whole entry)
The experiment is described as follows: Displacement of [3H]EBOB from GABA receptor in Musca domestica (house fly) head P2 membrane at 2.2 uM after 70 min by liquid scintillation counting.

As usually defined, the IC50 is the concentration needed to halve the response being measured. On to `CC(C)(C)CCOC(=O)c1ccc(C#CCCC(=O)O)cc1`, for which the IC50 worked out at 540 nM in experiment [1], 3410 nM in experiment [2] and 88 nM on GABA receptor subunit.
The term inhibition denotes the relative decrease from the control value, in per cent. The low end stands for a response near the control, the high end for a response far below the control. `COc1cc(O)c2c(c1C)C(C)C(O)(COC(=O)c1ccc(O)c(CC=C(C)C)c1)OC2=O` (stereo unspecified) [DIHYDROISOCOUMARIN]: the half-maximal inhibitory concentration (IC50) in experiment [2] stood at 3410 nM; on GABA receptor subunit, 88 nM. Further, in experiment [3], the inhibition came out at 65%.
